Results on 3 molecules are retold here after patent US20240277861A1, “ANTI-HEPATITIS B VIRUS AGENT TARGETING HOST FACTOR LIPG” (PUROTECH BIO, INC., priority 2021, published 2024).

Test [1] relates to HBV. Nature of the test: HBV attachment and uptake assay in HepG2-NTCP-C4 cells. It is filed as cell-based. The conditions noted are these: HepG2-NTCP-C4 control cells. As for the experimental part:
HBV-DNA and cccDNA were quantified by qPCR as described below. Total DNA was extracted from cells using DNeasy Blood & Tissue Kit (Qiagen, Hilden, Germany). HBV-DNA was quantified by qPCR analysis as previously reported (Honda. M. et al., J. Infect. Dis., 213, 1096-1106, 2016). The extracted DNA (50 ng) was treated with 10 U of Plasmid safe DNase I (Epicentre, Madison. WI) at 37° C. for 60 minutes and then treated at 70° C. for 30 minutes for DNase inactivation, cccDNA was quantified by qPCR analysis as previously reported (Honda, M. et al., J. Infect. Dis. 213, 1096-1106, 2016). Quantitative RT-PCR was performed as described below. The GenElute™ Mammalian Total RNA Miniprep Kit (Sigma-Aldrich) was used for extraction of total RNA, and the High Capacity cDNA Reverse Transcription Kit (Applied Biosystems, Carlsbad, CA) was used for cDNA synthesis. The 7500 Real Time PCR System (Applied Biosystems) was used for RT-PCR. Primers 5′-[…]-3′ (SEQ ID NO: 31) and 5′-[…]-3′ (SEQ ID NO: 32) and a probe 5′-FAM-[…]-MGB-3′ (SEQ ID NO: 33) were used for pregenomic RNA. Primer pairs and probes for LIPG, NTCP. […]
When the abundance of LIPG expression was compared among different liver cell lines. […] HBV attachment was detected by qPCR of HBV-DNA at 3 hours after HBV inoculation at 4° C. in the presence or absence of the compound (heparin or heparanase). […]

The test system of the next test is HBV-cccDNA. The conditions noted are these: Patent Document 1; cited from earlier work.
Test [2] deals with HBV. Nature of the test: HBV attachment, uptake and replication in Huh7-LIPG cells. The class given is cell-based. Conditions: Huh7-LIPG cells infected with HBV, 3 days after treatment. On the procedure: (§1) HBV-DNA and cccDNA were quantified by qPCR as described below. Total DNA was extracted from cells using DNeasy Blood & Tissue Kit (Qiagen, Hilden, Germany). HBV-DNA was quantified by qPCR analysis as previously reported (Honda. M. et al., J. Infect. Dis., 213, 1096-1106, 2016). The extracted DNA (50 ng) was treated with 10 U of Plasmid safe DNase I (Epicentre, Madison. WI) at 37° C. for 60 minutes and then treated at 70° C. for 30 minutes for DNase inactivation, cccDNA was quantified by qPCR analysis as previously reported (Honda, M. et al., J. Infect. Dis. 213, 1096-1106, 2016). Quantitative RT-PCR was performed as described below. The GenElute™ Mammalian Total RNA Miniprep Kit (Sigma-Aldrich) was used for extraction of total RNA, and the High Capacity cDNA Reverse Transcription Kit (Applied Biosystems, Carlsbad, CA) was used for cDNA synthesis. The 7500 Real Time PCR System (Applied Biosystems) was used for RT-PCR. Primers 5′-[…]-3′ (SEQ ID NO: 31) and 5′-[…]-3′ (SEQ ID NO: 32) and a probe 5′-FAM-[…]-MGB-3′ (SEQ ID NO: 33) were used for pregenomic RNA. Primer pairs and probes for LIPG, NTCP. 18SrRNA, and ACTB were obtained from the TaqMan assay reagents library.
When the abundance of LIPG expression was compared among different liver cell lines. […] HepG2-NTCP-C4 cells with overexpression of FLAG-LIPG (HepG2-NTCP-C4-LIPG cells) were established (FIG. 2B), and the attachment and uptake of HBV into cells were assayed in the resulting cells. Heparin, which has been reported to inhibit HBV attachment (Schulze. A. et al., Hepatology 46: 1759-1768, 2007), and heparanase, an endo-β-D-glucuronidase that cleaves the heparan sulfate side chain in heparan sulfate proteoglycans (HSPGs) (Bame, KJ. Glycobiology,11: 91R-98R,2001), were used as control compounds. […] HBV attachment was detected by qPCR of HBV-DNA at 3 hours after HBV inoculation at 4° C. in the presence or absence of the compound (heparin or heparanase). […]

Test [3] deals with HBV. Description: HBV attachment and uptake assay in HepG2-NTCP-C4-LIPG cells. It is filed as cell-based. Conditions: concentration-dependent. As for the experimental part:
as §1
When the abundance of LIPG expression was compared among different liver cell lines. […] HepG2-NTCP-C4 cells with overexpression of FLAG-LIPG (HepG2-NTCP-C4-LIPG cells) were established (FIG. 2B), and the attachment and uptake of HBV into cells were assayed in the resulting cells. Heparin, which has been reported to inhibit HBV attachment (Schulze. A. et al., Hepatology 46: 1759-1768, 2007), and heparanase, an endo-β-D-glucuronidase that cleaves the heparan sulfate side chain in heparan sulfate proteoglycans (HSPGs) (Bame, KJ. Glycobiology,11: 91R-98R,2001), were used as control compounds. Cells (HepG2-NTCP-C4-LIPG cells and HepG2-NTCP-C4 control cells) were pretreated with these compounds for 1 hour and then with HBV at 4° C. for 3 hours to allow HBV to attach the cells, washed to wash out HBV, and further incubated at 37° C. for 12 hours to detect uptake of HBV (FIG. 2C). In addition, the cells were further cultured in a conventional culture medium for 3 days after HBV inoculation to detect HBV DNA and cccDNA in the cells (FIG. 2C). HBV attachment was detected by qPCR of HBV-DNA at 3 hours after HBV inoculation at 4° C. in the presence or absence of the compound (heparin or heparanase). HBV attachment (FIG. 2D), uptake (FIG. 2E), and replication of HBV DNA and cccDNA (FIGS. 2F and 2G) were all increased in the HepG2-NTCP-C4-LIPG cells compared to the HepG2-NTCP-C4 control cells.
Next, the effect of a LIPG inhibitor (GSK-264220A) on HBV attachment and uptake was examined. […] At the same time, this inhibitor had no effect on HepG2-NTCP-C4 control cells.

Test [4] relates to HBV. Conditions: in vitro cell system; cited from earlier work.
Test [5] deals with LIPG-mediated HBV attachment and entry (preS1 peptide) in PXB cells. Description: Uptake of TMR-labeled preS1 peptide into PXB cells (confocal microscopy). It is filed as cell-based, human. Conditions: PXB cells treated with FLAG-LIPG 3 hours. As for the experimental part:
FIG. 22-1 The effect of LIPG to promote HBV entry into cells and the effect of a LIPG-binding peptide and Netrin-1 to inhibit HBV entry into cells. A: PXB cells were mixed with a purified form of FLAG-LIPG and incubated for 3 hours. The resulting cells were mixed with a preS1 peptide fluorescently labeled with TMR (tetramethylrhodamine) and incubated for 30 minutes, and then observed with a confocal microscope. The fluorescence of the preS1 peptide was detected, and the fluorescence intensity was normalized to the DAPI fluorescence intensity. p<0.05. B: PXB cells were treated with 100 nM LIPG-binding peptide LIPH4-23S or LIPH4-NTNBS for 15 hours, and a purified form of FLAG-LIPG was added thereto, followed by incubation for 3 hours. The resulting cells were mixed with a preS1 peptide fluorescently labeled with TMR and incubated for 30 minutes, and then observed with a confocal microscope. The fluorescence of the preS1 peptide was detected, and the fluorescence intensity was normalized to the DAPI fluorescence intensity. *:p<0.05. C: PXB cells were mixed with Netrin-1 and incubated for 3 hours. […] The fluorescence of the preS1 peptide was detected, and the fluorescence intensity was normalized to the DAPI fluorescence intensity. *:p<0.05. […] The fluorescence of the preS1 peptide was detected, and the fluorescence intensity was normalized to the DAPI fluorescence intensity. […]

Test [6] has as its target T1, binding between preS1 and heparan sulfate enhanced by LIPG (Homo sapiens, UniProt Q9Y5X9).
T1 construct: FLAG
T1 sequence (Q9Y5X9 21-500): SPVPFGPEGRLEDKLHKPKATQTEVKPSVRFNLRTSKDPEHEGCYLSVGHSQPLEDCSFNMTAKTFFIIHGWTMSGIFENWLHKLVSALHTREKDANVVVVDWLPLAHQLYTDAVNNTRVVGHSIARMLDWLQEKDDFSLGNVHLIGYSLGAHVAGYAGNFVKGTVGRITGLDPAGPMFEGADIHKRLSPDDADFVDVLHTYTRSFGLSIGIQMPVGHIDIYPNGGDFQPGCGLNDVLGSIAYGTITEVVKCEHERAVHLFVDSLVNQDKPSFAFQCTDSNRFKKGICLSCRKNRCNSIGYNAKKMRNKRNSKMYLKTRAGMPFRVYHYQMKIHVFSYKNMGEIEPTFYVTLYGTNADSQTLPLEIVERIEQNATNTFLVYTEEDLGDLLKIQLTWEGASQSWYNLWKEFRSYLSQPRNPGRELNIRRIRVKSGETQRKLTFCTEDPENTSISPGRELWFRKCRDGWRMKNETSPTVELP
Description: Plate assay of binding between preS1 peptide and immobilized heparan sulfate with FLAG-LIPG. Conditions: 10, 25, or 50 fmol of FLAG-LIPG per well. On the procedure: FIG. 22-2 The effect of LIPG to promote HBV entry into cells and the effect of a LIPG-binding peptide and Netrin-1 to inhibit HBV entry into cells. E: A biotin-labeled form of heparan sulfate was added to a streptavidin-coated 96 well plate and left overnight at 4° C. to allow the heparan sulfate to bind to the plate. This plate was washed with TBS, and 10, 25, or 50 fmol of FLAG-LIPG was then added to each well to allow the reaction to proceed at room temperature for 2 hours. After the plate was washed, 10 or 100 nmol of LIPG-binding peptide LIPH4-NTNBS, LIPH4-23S, LIPH4-NTNBSA, or LIPH4-23SA was added to each well to allow the treatment to proceed at room temperature for 1 hour. Subsequently, the plate was washed, and 0.1 nmol of preS1-TMR was added to each well to allow the treatment to proceed at room temperature for another 1 hour. The plate was washed and then placed in a plate reader to measure the fluorescence of TMR.
Furthermore, PXB cells treated with Netrin-1 were further treated with FLAG-LIPG, and the uptake of the preS1 peptide was examined, to find that the enhancement of the uptake of the preS1 peptide by FLAG-LIPG was suppressed by Netrin-1 (FIG. 22D). In addition, a biotin-labeled heparan sulfate was immobilized on a streptavidin-coated plate and the preS1 peptide was added thereto to study the binding between the preS1 region of HBV and heparan sulfate present on the cell surface.

In the case of `Cc1oc(S(=O)(=O)N2CCCCC2)cc1NC(=O)Nc1ccccc1` [GSK-264220A], the “HBV attachment and uptake” value with HBV [1] was “no effect”. For the same molecule, the HBV-cccDNA entry in the test with HBV-cccDNA is “effective in reducing HBV-cccDNA”. In addition, in the test with HBV [2], the “LIPG-mediated increase in HBV replication (cccDNA)” value is “reduced HBV replication”. In addition, in the test on HBV [3] (3 hours after HBV inoculation at 4° C.), the “HBV attachment (HBV-DNA)” value is on record as “inhibited”. The “HBV uptake (HBV-DNA)” value in the test with HBV [3] (12 hours after being recultured at 37° C.) is on record as “inhibited”.

Take `COc1cc2ncnc(Nc3ccc(F)c(Cl)c3)c2cc1OCCCN1CCOCC1` [gefitinib]: in the test with HBV [4], the HBV infection entry is on record as “reduces HBV infection”.

B1: FLAG-LIPG: purified form of FLAG-tagged LIPG added to PXB cells or plate (protein)
chain: SPVPFGPEGRLEDKLHKPKATQTEVKPSVRFNLRTSKDPEHEGCYLSVGHSQPLEDCSFNMTAKTFFIIHGWTMSGIFENWLHKLVSALHTREKDANVVVVDWLPLAHQLYTDAVNNTRVVGHSIARMLDWLQEKDDFSLGNVHLIGYSLGAHVAGYAGNFVKGTVGRITGLDPAGPMFEGADIHKRLSPDDADFVDVLHTYTRSFGLSIGIQMPVGHIDIYPNGGDFQPGCGLNDVLGSIAYGTITEVVKCEHERAVHLFVDSLVNQDKPSFAFQCTDSNRFKKGICLSCRKNRCNSIGYNAKKMRNKRNSKMYLKTRAGMPFRVYHYQMKIHVFSYKNMGEIEPTFYVTLYGTNADSQTLPLEIVERIEQNATNTFLVYTEEDLGDLLKIQLTWEGASQSWYNLWKEFRSYLSQPRNPGRELNIRRIRVKSGETQRKLTFCTEDPENTSISPGRELWFRKCRDGWRMKNETSPTVELPDYKDDDDK
For B1, in test [5], the “preS1 peptide present in the cells” value is reported as “increased by FLAG-LIPG in a concentration-dependent manner”. Moreover, the “binding between preS1 and heparan sulfate (TMR fluorescence)” value in test [6] is recorded as “enhanced by FLAG-LIPG in a concentration-dependent manner”.
